Measured values: patent US9120779B2, “Inhibitors of HCV NS5A” (PRESIDIO PHARMACEUTICALS, INC., priority 2008, dated 2015)

Test system: HCV genotype 1b replicon in Huh 7 cells
Test: HCV replicon assay (luciferase readout, 1b_Huh-Luc/Neo-ET cell line)
Type: cell-based
Conditions: Hepatitis C virus, Huh-7, 72 h, read-out: Inhibition of HCV genotype 1b, Table 1, 72 h incubation
Method: Biological activity of the compounds of the invention was determined using an HCV replicon assay. The 1b_Huh-Luc/Neo-ET cell line persistently expressing a bicistronic genotype 1b replicon in Huh 7 cells was obtained from R^eBLikon GMBH. This cell line was used to test compound inhibition using luciferase enzyme activity readout as a measurement of compound inhibition of replicon levels.
On Day 1 (the day after plating), each compound is added in triplicate to the cells. Plates incubated for 72 h prior to running the luciferase assay. Enzyme activity was measured using a Bright-Glo Kit (cat. number E2620) manufactured by Promega Corporation. The following equation was used to generate a percent control value for each compound. % Control=(Average Compound Value/Average Control)*100
The EC50 value was determined using GraphPad Prism and the following equation: Y=Bottom+(Top−Bottom)/(1+10^((Log IC50−X)*HillSlope))
EC50 values of compounds are repeated several times in the replicon assay.
Example compounds of the disclosed invention are illustrated in Tables 1-9 attached as appendices. The tables show inhibitory activity of many of the example compounds with respect to HCV 1b. […] The tables further provide mass spectrometry results for the synthesized example compounds.

| SMILES | EC50 [nM] |
| --- | --- |
| O=C(N[C@H]1CC[C@H](c2ccc(-c3cnc([C@@H]4CCCN4C(=O)[C@H](NC(=O)N4CCOCC4)c4ccccc4)[nH]3)cc2)CC1)[C@@H]1CCCN1C(=O)[C@H](NC(=O)N1CCOCC1)c1ccccc1 [compound 354] | 1 to 9.9 |
| COC(=O)N[C@@H](C(=O)N1CCC[C@H]1c1ncc(-c2ccc([C@H]3CC[C@](C)(c4cnc([C@@H]5CCCN5C(=O)[C@H](NC(=O)OC)c5ccccc5)[nH]4)CC3)cc2)[nH]1)c1ccccc1 [compound 2006] | < 1 |
| COC(=O)N[C@H](Cc1ccccc1)C(=O)N1CCC[C@H]1c1ncc(C2CCC(c3ccc(-c4cnc([C@@H]5CCCN5C(=O)[C@@H](c5ccccc5)N5CCCC5)[nH]4)cc3)CC2)[nH]1 (stereo partly shown) [compound 375] | < 1 |
| CN1CCN(C(=O)N[C@@H](C(=O)N2CCC[C@H]2c2ncc(-c3ccc(C4CCC(c5cnc([C@@H]6CCCN6C(=O)[C@H](NC(=O)N6CCN(C)CC6)c6ccccc6)o5)CC4)cc3)[nH]2)c2ccccc2)CC1 (stereo partly shown) [compound 359] | 1 to 9.9 |
| O=C(N[C@@H](C(=O)N1CCC[C@H]1c1ncc(-c2ccc(C3CCC(c4cnc([C@@H]5CCCN5C(=O)[C@H](NC(=O)N5CCOCC5)c5ccccc5)o4)CC3)cc2)[nH]1)c1ccccc1)N1CCOCC1 (stereo partly shown) [compound 358] | < 1 |
| O=C(N[C@@H](C(=O)N1CCC[C@H]1c1ncc(-c2ccc(C3CCC(c4cnc([C@@H]5CCCN5C(=O)[C@H](NC(=O)C5CC5)c5ccccc5)[nH]4)CC3)cc2)[nH]1)c1ccccc1)C1CC1 (stereo partly shown) [compound 371] | < 1 |
| COC(=O)N[C@H](C(=O)N1CCC[C@H]1c1ncc(-c2ccc([C@H]3CC[C@H](c4cnc([C@@H]5CCCN5C(=O)[C@@H](c5ccccc5)N5CCCCC5)[nH]4)CC3)cc2)[nH]1)C(C)C [compound 947] | < 1 |

Same assay, conditions: Hepatitis C virus, Huh-7, 72 h, read-out: Inhibition of HCV genotype 1b, Table 2, 72 h incubation

| SMILES | EC50 [nM] |
| --- | --- |
| COC(=O)N[C@H](C(=O)N1CCC[C@H]1c1ncc(-c2ccc(-c3ccc4nc([C@@H]5CCCN5C(=O)[C@@H](NC(=O)OC)C(C)C)[nH]c4c3)cc2)[nH]1)C(C)C [compound 403] | < 1 |

Same assay, conditions: Hepatitis C virus, Huh-7, 72 h, read-out: Inhibition of HCV genotype 1b, Table 3, 72 h incubation

| SMILES | EC50 [nM] |
| --- | --- |
| O=C(N[C@@H](C(=O)N1CCC[C@H]1C(=O)NC1CCN(c2ccc(-c3cnc([C@@H]4CCCN4C(=O)[C@H](NC(=O)C4CC4)c4ccccc4)[nH]3)cc2F)CC1)c1ccccc1)C1CC1 [compound 456] | < 1 |
| COC(=O)N[C@@H](C(=O)N1CCC[C@H]1c1ncc(-c2cc(F)c(N3CCC(c4cnc([C@@H]5CCCN5C(=O)[C@H](NC(=O)[C@@H]5CCCN5C)c5ccccc5)[nH]4)CC3)c(F)c2)[nH]1)c1ccccc1 [compound 472] | < 1 |
| COC(=O)N[C@@H](C(=O)N1CCC[C@H]1c1ncc(C2CCN(c3c(F)cc(-c4cnc([C@@H]5CCCN5C(=O)[C@H](NC(=O)C5CC5)c5ccccc5)[nH]4)cc3F)CC2)[nH]1)c1ccccc1 [compound 480] | < 1 |
| COC(=O)N[C@H](C(=O)N1CCCC[C@H]1c1ncc(C2CCN(c3c(F)cc(-c4cnc([C@@H]5CCCN5C(=O)[C@H](NC(=O)OC)c5ccccc5)[nH]4)cc3F)CC2)[nH]1)C(C)C [compound 500] | < 1 |
| COC(=O)N[C@@H](C(=O)N1CCC[C@H]1c1ncc(-c2cc(F)c(N3CCC(c4cnc([C@@H]5CCCCN5C(=O)[C@H](NC(=O)C5CC5)c5ccccc5)[nH]4)CC3)c(F)c2)[nH]1)c1ccccc1 [compound 486] | < 1 |

Same assay, conditions: Hepatitis C virus, Huh-7, 72 h, read-out: Inhibition of HCV genotype 1b, Table 4, 72 h incubation

| SMILES | EC50 [nM] |
| --- | --- |
| COC(=O)N[C@@H](C(=O)N1CCC[C@H]1c1nc2ccc(-c3ccc(-c4ccc5nc([C@@H]6CCCN6C(=O)[C@H](NC(=O)OC)c6ccccc6)[nH]c5c4)cc3)cc2[nH]1)c1ccccc1 [compound 550] | < 1 |
| COC(=O)N[C@H](C(=O)N[C@@H](C)c1nc2ccc(-c3ccc(-c4ccc5nc([C@@H]6CCCN6C(=O)[C@H](C(C)C)N(C)C)[nH]c5c4)cc3)cc2[nH]1)C(C)C [compound 937] | 1 to 9.9 |
| CC(C)[C@H](NC(=O)OC(C)(C)C)C(=O)N1CCC[C@H]1c1nc2ccc(-c3ccc(-c4ccc5nc([C@@H]6CCCN6C(=O)[C@@H](NC(=O)OC(C)(C)C)C(C)C)[nH]c5c4)cc3)cc2[nH]1 [compound 554] | > 1000 |
| COC(=O)N[C@H](C(=O)N1CCC[C@H]1c1nc2ccc(-c3ccc(-c4ccc5nc([C@@H]6CCCN6C(=O)[C@@H](c6ccccc6)N(C)C)[nH]c5c4)cc3)cc2[nH]1)C(C)C [compound 2038] | < 1 |
| COC(=O)N[C@H](C(=O)N1CCC[C@H]1c1nc2ccc(-c3ccc(-c4ccc5nc([C@@H]6CCCN6C(=O)[C@@H](NC(=O)OC)C6CCOCC6)[nH]c5c4)cc3)cc2[nH]1)C1CCOCC1 [compound 2039] | < 1 |
| COC(=O)N[C@H](C(=O)N1CCC[C@H]1c1nc2ccc(-c3ccc(-c4ccc5nc([C@@H]6CCCN6C(=O)[C@@H](NC(=O)OC)C(C)C)[nH]c5c4)cc3)cc2[nH]1)C(C)C [compound 551] | < 1 |

Same assay, conditions: Hepatitis C virus, Huh-7, 72 h, read-out: Inhibition of HCV genotype 1b, Table 5, 72 h incubation

| SMILES | EC50 [nM] |
| --- | --- |
| COC(=O)N[C@@H](C(=O)N1CCC[C@H]1CNC(=O)C12CCC(c3ccc(-c4cnc([C@@H]5CCCN5C(=O)[C@H](NC(=O)OC)c5ccccc5)[nH]4)cc3)(CC1)CC2)c1ccccc1 [compound 604] | < 1 |
| COC(=O)N[C@H](C(=O)N1CCC[C@H]1c1ncc(-c2ccc(C34CCC(c5cnc([C@@H]6CCCN6C(=O)[C@@H](NC(=O)OC)C(C)(C)C)[nH]5)(CC3)CC4)cc2)[nH]1)C(C)(C)C [compound 2093] | < 1 |
| CC(C)(C)OC(=O)N[C@@H](C(=O)N1CCC[C@H]1CNC(=O)C12CCC(c3ccc(-c4cnc([C@@H]5CCCN5C(=O)[C@H](NC(=O)OC(C)(C)C)c5ccccc5)[nH]4)cc3)(CC1)CC2)c1ccccc1 [compound 600] | 1 to 9.9 |
| COC(=O)N[C@H](C(=O)N1CCC[C@H]1c1ncc(-c2ccc(C34CCC(c5cnc([C@@H]6CCCN6C(=O)[C@H](NC6CCOCC6)c6ccccc6)[nH]5)(CC3)CC4)cc2)[nH]1)C(C)C [compound 2064] | < 1 |
| COC(=O)N[C@H](C(=O)N1CCC[C@H]1c1ncc(C23CCC(c4ccc(-c5cnc([C@@H]6CCCN6C(=O)[C@@H](NC(=O)C6CCN(C)CC6)C(C)C)[nH]5)cc4)(CC2)CC3)[nH]1)C(C)C [compound 647] | 10 to 999 |
| COC(=O)N[C@H](C(=O)N1CCC[C@H]1c1ncc(C23CCC(c4ccc(-c5cnc([C@@H]6CCCN6C(=O)[C@@H](C)NC(=O)OC)[nH]5)cc4)(CC2)CC3)[nH]1)C(C)C [compound 2082] | < 1 |
| COC(=O)N[C@@H](C(=O)N1CCC[C@H]1c1ncc(-c2ccc(C34CCC(c5cnc([C@@H]6CCCN6C(=O)[C@@H](NC(=O)N6CCN(C)CC6)C(C)C)[nH]5)(CC3)CC4)cc2)[nH]1)c1ccccc1 [compound 637] | 1 to 9.9 |
| COC(=O)N[C@H](C(=O)N1CCC[C@H]1c1ncc(C23CCC(c4ccc(-c5cnc([C@@H]6CCCN6C(=O)[C@@H](NC(=O)N6CCN(C)CC6)C(C)C)[nH]5)cc4)(CC2)CC3)[nH]1)C(C)C [compound 646] | 10 to 999 |
| COC(=O)N[C@H](C(=O)N1CCC[C@H]1c1ncc(C23CCC(c4ccc(-c5cnc([C@@H]6CCCN6C(=O)[C@@H](C(C)C)N(C)C)[nH]5)cc4)(CC2)CC3)[nH]1)C(C)C [compound 2070] | < 1 |
| COC(=O)N[C@@H](C(=O)N1CCC[C@H]1c1ncc(C23CCC(c4ccc(-c5cnc([C@@H]6CCCN6C(=O)[C@H](NC(=O)OC)C(C)C)[nH]5)cc4)(CC2)CC3)[nH]1)c1ccccc1 [compound 621] | < 1 |
| COC(=O)N[C@@H](C(=O)N1CCC[C@H]1c1ncc(-c2ccc(C34CCC(c5cnc([C@@H]6CCCN6C(=O)[C@@H](c6ccccc6)N(C)C)[nH]5)(CC3)CC4)cc2)[nH]1)c1ccccc1 [compound 618] | < 1 |
| COC(=O)N[C@H](C(=O)N1CCC[C@H]1c1ncc(C23CCC(c4ccc(-c5cnc([C@@H]6CCCN6C(=O)[C@H](NC(=O)OC)c6ccccc6)[nH]5)cc4)(CC2)CC3)[nH]1)[C@@H](C)OC [compound 609] | < 1 |
| COC(=O)N[C@H](C(=O)N[C@@H](C)c1ncc(-c2ccc(C34CCC(c5cnc([C@@H]6CCCN6C(=O)[C@H](C(C)C)N(C)C)[nH]5)(CC3)CC4)cc2)[nH]1)C(C)C [compound 2078] | < 1 |
| COC(=O)N[C@@H](C(=O)N1CCC[C@H]1c1ncc(-c2ccc(C34CCC(c5cnc([C@@H]6CCCN6C(=O)[C@@H](c6ccccc6)N6CCOCC6)[nH]5)(CC3)CC4)cc2)[nH]1)c1ccccc1 [compound 611] | < 1 |
| COC(=O)N[C@H](C(=O)N1CCC[C@H]1c1ncc(-c2ccc(C34CCC(c5cnc([C@@H]6CCCN6C(=O)[C@@H](C)NC(=O)OC)[nH]5)(CC3)CC4)cc2)[nH]1)C(C)C [compound 2062] | < 1 |
| COC(=O)N[C@@H](C(=O)N1CCC[C@H]1c1ncc(-c2ccc(C34CCC(c5cnc([C@@H]6CCCN6C(=O)[C@@H](NC(=O)N6CCC(=O)CC6)C(C)C)[nH]5)(CC3)CC4)cc2)[nH]1)c1ccccc1 [compound 644] | 1 to 9.9 |
| COC(=O)N[C@@H](C(=O)N1CCOC[C@H]1c1ncc(-c2ccc(C34CCC(c5cnc([C@@H]6CCCN6C(=O)[C@H](NC(=O)OC)c6ccccc6)[nH]5)(CC3)CC4)cc2)[nH]1)c1ccccc1 [compound 2086] | < 1 |

Same assay, conditions: read-out: Inhibition of HCV genotype 1b, Table 3, 72 h incubation

| SMILES | EC50 [nM] |
| --- | --- |
| COC(=O)N[C@@H](C(=O)N1CCC[C@H]1c1ncc(-c2cc(F)c(N3CCC(c4cnc([C@@H]5CCCN5C(=O)[C@H](NC(=O)N5CCOCC5)c5ccccc5)[nH]4)CC3)c(F)c2)[nH]1)c1ccccc1 [compound 473] | < 1 |
